From patent US20070110817A1, “Biological active blood serum obtained by electrostimulation” (Owen Holding Ltd., priority 2004, published 2007)

System: rats
Test: Escape reaction latency after zytisin with or without serum
Type: in vivo, rat
Protocol: During the formation and the long-term maintenance of information a significant role is attributed to H-cholino-ceptive mechanisms. 30 animals who were taught for five days how to dive under a “bell” were subdivided into three groups.
A physiological solution of zytisin (a H-cholino-ceptive antagonist of the brain) was injected with a dose of 1 mg/kg body weight into the peritoneal cavity 30 minutes prior to the test of the animals of the first group (ten rats).
Biologically active serum was administered in a dose of 100 mg/kg body weight to the animals of the second group (ten rats) and 30 minutes later a zytisin solution was administered with a dose of 1 mg/kg body weight.
The third animal group (control—ten rats) received a 1 ml injection of a physiological salt solution.
The complex behaviour of the animals was tested according to above-indicated method 48 hours after the injection of the indicated substances.

O=c1cccc2n1C[C@@H]1CNC[C@H]2C1 [zytisin]
slowing of the “escape reaction” in comparison to control animals (48 hours after zytisin 1 mg/kg): 3 fold | Latency period for the reaction of rats to the situation (after 48 h, zytisin 1 mg/kg, serum 100 mg/kg 30 minutes before zytisin, control 13.33 ± 0.58): 40.0 ± 14 s
